Source: US8529877B2, “Benzylidene compounds comprising phosphono-groups” (BASF SE, priority 2008, dated 2013)

Legend:
Format in all cases: physicochemical
[1] = Photostability of Butyl Methoxydibenzoylmethane in O/W sunscreen film, solar simulator, HPLC; conditions: for Residual Butyl Methoxydibenzoylmethane: solar simulator 2 hours (5400 kJ/m2)
Protocol: The photostability of Butyl Methoxydibenzoylmethane is determined by spreading the emulsion as a 20 μm thick film on a quartz plate. The film is irradiated using a solar simulator for 2 hours (5400 kJ/m2). After irradiation, the quartz plate is plunged into 5 ml of tetrahydrofurane. The amount of UV-A filter Butyl Methoxydibenzoylmethane is then determined using high performance liquid chromatography. The residual Butyl Methoxydibenzoylmethane is determined to be 42%.
The photostability of Butyl Methoxydibenzoylmethane in the comparative formulation B is determined as described above for formulation A. The residual Butyl Methoxydibenzoylmethane is determined to be 4%.

[2] = UV shielding properties: UV spectra in ethanol (absorption maximum, A1%1cm); design: Absorption maximum λmax: unit not given here; conditions: for Absorption maximum λmax / A^1%1 cm: UV spectra in ethanol; for A^1%1 cm: at the absorption maximum; for Absorption bands (coverage of UV range): UV spectrum in ethanol
Description: The UV shielding properties of the bisbiphenyl triazine derivatives were investigated by measuring their UV spectra in ethanol. In the following table the investigated absorption maxima (λmax) together with the corresponding A^1%1cm values are listed.

[3] = Photostability of the UV filter in highly diluted ethanol solution under irradiation, analysed by UV spectroscopy; conditions: for Half time: first order kinetic fit, half-life under COLIPA standard sun irradiation
Protocol: The method used for assessment of photostability is based on the irradiation of a highly diluted solution of the UV-filter. The analysis after certain doses of irradiation was performed by UV-spectroscopy. The concentration of the UV-absorber in ethanol is adjusted to values between 1·10^−5 and 1·10^−6 mol/l, such that the absorbance of the solution in cuvette of 1 cm optical pathlength is equal or smaller than 0.2. The mutual protection of filter molecules can be excluded under such conditions.
Prior to irradiation of a sample the UVB-intensity at the sample position is measured with a UV-radiometer (RM-12, Dr. Gröbel Electronic GmbH). This radiometer was calibrated by comparison with a measurement of the spectral output of the metal halide lamp (including light guide and cut-off filter) using a wavelength-resolved radiometer (Gamma C11). Therefore the relationship of the reading of the RM-12 radiometer and the corresponding spectral output of the lamp is known, and one is able to determine the wavelength-resolved intensities by measuring the UVB-intensity. By changing the distance between the end of the light guide and the cuvette, the UVB-intensity can be varied in the range of 100 μW/cm^2 and 4500 μW/cm^2.
For sample irradiation the highest possible intensity was used (4.5 mW/cm^2 UVB-intensity measured with the Macam 103 radiometer). The irradiation time was varied from 0 to 180 min. The dose the sample has received after 180 minutes corresponds to 60 MED. During irradiation the sample was stirred. After certain intervals of irradiation, the samples were analysed in a UV-spectrometer (Perkin Elmer, Lambda 16).
From the absorbance values at each dose of irradiation the concentration may be calculated using Lambert-Beer's law. In order to get the half-life of the substance, a first order kinetic model was fitted to the experimental data. Since the UV-spectrum of the lamp and the UV-spectrum of the COLIPA standard sun are known, one can calculate the respective half-life of the UV-absorber under conditions of COLIPA standard sun irradiation [Bernd Herzog, Stefan Müller, Myriam Sohn, Uli Osterwalder, “New Insight and Prediction of Photostablity of Sunscreens”, SÖFW Journal 133, 26-36 (2007)].
The investigated half-time values and recovery after irradiation (10 MED) of some specific benzotropolones are listed in the table below: […]

[4] = Photostability of Ethylhexyl Methoxycinnemate in O/W sunscreen film, solar simulator, HPLC; conditions: for Residual Ethylhexyl Methoxycinnemate: solar simulator 4 hours (10800 kJ/m2)
Protocol: The photostability of the UV-B filter Ethylhexyl Methoxycinnemate is determined by spreading the emulsion as a 20 μm thick film on a quartz plate. The film is irradiated using a solar simulator for 4 hours (10800 kJ/m2). After irradiation, the quartz plate is plunged into 5 ml of tetrahydrofurane. The amount of UV-B filter Ethylhexyl Methoxycinnemate is then determined using high performance liquid chromatography. The residual Ethylhexyl Methoxycinnemate is determined to be 59%.
The photostability of Ethylhexyl Methoxycinnemate in the comparative formulation B is determined as described above for formulation A. The residual Ethylhexyl Methoxycinnemate is determined to be 38%.

[5] = O/W Sunscreen Formulation A (with P-01), 20 μm film on quartz plate
[6] = comparative formulation B (without P-01), 20 μm film
[7] = formulation A versus comparative formulation B

SMILES	Absorption maximum λmax [2]	A^1%1 cm [2]	Absorption bands (coverage of UV range) [2]	Half time [3]	also measured
COc1ccc(C(=O)CC(=O)c2ccc(C(C)(C)C)cc2)cc1 [Butyl Methoxydibenzoylmethane, 1-[4-(1,1-dimethylethyl)phenyl]-3-(4-methoxyphenyl)propane-1,3-dione]	–	–	–	–	Residual Butyl Methoxydibenzoylmethane [1, 5]: 42%; Residual Butyl Methoxydibenzoylmethane [1, 6]: 4%
CCOC(=O)/C(=C\c1ccc(OC)cc1)P(=O)(OCC)OCC [Compound P-1]	303	519	broad absorption bands	14 311 h	Stabilization factor of Butyl Methoxydibenzoylmethane [1, 7]: at least 10; Photodegradation after irradiation of 10 MED [3]: no photodegradation; Stabilization factor of Ethylhexyl Methoxycinnemate [4, 7]: 1.55
CCOC(=O)/C(=C\c1ccc(/C=C(\C(=O)OCC)P(=O)(OCC)OCC)cc1)P(=O)(OCC)OCC [Compound P-2]	302	500	broad absorption bands	172 h	–
CCOC(=O)/C(=C\c1ccc(N(CC)CC)cc1)P(=O)(OCC)OCC [Compound P-3]	366	624	broad absorption bands	320 h	–
CCOC(=O)/C(=C\c1cc(OC)c(O)c(OC)c1)P(=O)(OCC)OCC [Compound P-4]	322	390	broad absorption bands	100 h	–
CCOP(=O)(OCC)C(=Cc1ccc(-c2ccccc2)cc1)P(=O)(OCC)OCC [Compound P-5]	299	427	broad absorption bands	7 h	–
CCOP(=O)(OCC)C(=Cc1ccc(OC)cc1)P(=O)(OCC)OCC [Compound P-6]	313	575	broad absorption bands	11285 h	–
CCOC(=O)/C(=C\c1ccc(-c2ccccc2)cc1)P(=O)(OCC)OCC [Compound P-7]	302	650	broad absorption bands	466.6 h	Photodegradation after irradiation of 10 MED [3]: no photodegradation
CCOC(=O)/C(=C\c1ccc(NC(C)=O)cc1)P(=O)(OCC)OCC [Compound P-17]	308	604	–	947.6 h	–
CCOC(=O)/C(=C\c1ccc(-c2ccc(/C=C(\C(=O)OCC)P(=O)(OCC)OCC)cc2)cc1)P(=O)(OCC)OCC [Compound P-19]	324	733	–	220.6 h	–
CCOC(=O)C(=C1c2ccccc2-c2ccccc21)P(=O)(OCC)OCC [Compound P-20]	314	371	–	449.2 h	–
CCOC(=O)/C(=C\c1ccc(O)c(OC)c1)P(=O)(OCC)OCC [Compound P-21]	319	429	–	–	–
CCOC(=O)/C(=C\c1cc(OC)c(OC)c(OC)c1)P(=O)(OCC)OCC [Compound P-22]	299	357	–	262.8 h	–
CCCCC(CC)COC(=O)C=Cc1ccc(OC)cc1 (centres unmarked) [Ethylhexyl Methoxycinnemate, 2-ethylhexyl 4-methoxycinnamate]	–	–	–	–	Residual Ethylhexyl Methoxycinnemate [4, 5]: 59%; Residual Ethylhexyl Methoxycinnemate [4, 6]: 38%
